Measured values as given in patent US20250002535A1, “PEPTIDE HYDROGEL COMPRISING HYDROPHILIC AZIDE-CONTAINING AMINO ACID AND ITS USE” (The United States of America, as represented by the …, priority 2023, published 2025).
Numbered stars: 1 amine (or outer) side, 2 acyl side, 3 side chain; on linkers, the order of the positions; unused ones are H or OH. Square brackets hold non-standard residues; d marks the D form. Peptide text beside a SMILES is read from it. X1 = [N-]=[N+]=NCCNCC[C@H](N[*:1])C(=O)[*:2]; Lys(N3) = [N-]=[N+]=NCCCC[C@H](N)C(=O)O

Key:
[1] = SPAAC ligation kinetics with BCN, second order conditions, NMR; settings: methanol at 25° C.
Description: The reaction kinetics of amino acid 1 in SPAAC with two strained cyclooctynes, DBCO and BCN, were determined in comparison with ^N3K. First, peptides 12 and 13, which contain residue 1 and ^N3K respectively, were independently ligated to PEG-functionalized DBCO. Rates were determined under pseudo-first order conditions by UV-vis spectroscopy at 308 nm (FIGS. 3A-3C, 7, 8). The calculated second order rate constant for peptide 12 was 0.34 M^−1 s^−1 in HBS buffer, pH 7.4 at 25° C., which is similar to previously reported rate constants for other azides. The ligation rate of peptide 12 is slightly slower than peptide 13 ([…]), which may be due to hydrophobic interactions between the ^N3K side-chain and the aromatic DBCO, facilitating ligation. […] We then determined the reaction rate of Boc-protected amino acid 2 itself with BCN in methanol at 25° C. […]
Solutions of BCN and amino acids were prepared in MeOD. The reaction between BCN and amino acids was measured under second order conditions using NMR. […] The reaction was monitored by ^1H NMR. Concentration of product ([P]) at each time point was determined by the integration of red proton in the product using blue proton as internal standard. The value of k2t was calculated by equation 1. With Prism software, second order rate constants, k2, was calculated by linear regression between k2t and time. […]

[2] = solubility of peptide powder in solvents; assay type: physicochemical
Description: Peptide 17: Insoluble powder in water and acetonitrile. It is soluble in Trifluoroethanol.

[3] = solubility in water by UV-vis spectroscopy before and after centrifugation; assay type: physicochemical; settings: 20 mg/mL was the highest concentration tested
Description: Residue 1's ability to enhance solubility was tested via the amphiphilic peptide 16, which contains 7 copies of 1 along with 9 hydrophobic Val residues. Here, we directly measured solubility via UV-vis spectroscopy of aqueous preparations of peptides before and after centrifugation (FIG. 2B). Peptide 16 (FIG. 5) was fully soluble in water at 20 mg/mL, the highest concentration tested, as was its Lys-containing control peptide 18. […] Further, peptides 16 and 18 had nearly identical RP-HPLC chromatograms (FIG. 6) indicating similar hydrophilic character. In contrast, the ^N3K-containing peptide 17 was completely insoluble in water at only 1 mg/mL, showing extensive light scattering before centrifugation and no scattering after, due to sedimentation of aggregates.

[4] = intrinsic hydrophilicity/hydrophobicity coefficient ΔtR(Gly) by RP-HPLC (procedure of Hodges et al.); assay type: physicochemical; settings: RP-HPLC retention of guest-residue peptide versus Gly standard; positive = more hydrophobic than Gly
Description: We then determined the intrinsic hydrophilicity/hydrophobicity coefficients (ΔtR(Gly)) for residue 1, ^N3K, and Lys according to the procedure of Hodges et al. to gain comparative insight into the hydrophilic nature of the new residue. […] Amino acids with side-chains more hydrophobic than Gly have positive ΔtR(Gly) values, and vice-versa.
RP-HPLC was performed with a solvent system of 0.1% TFA in Milli-Q H2O (Standard A) and 0.1% TFA in 9:1 CH3CN/H2O (Standard B). Analytical RPHPLC was performed on an Agilent 1200 series HPLC, using a Vydac 218TP C18 column (250×4.6 mm, 5 μm), with a linear gradient from 0 to 100% B at a rate of 1% B per min, at a flow rate of 0.25 mL/min and a column temperature of 40° C.

Compound | solubility [3] [mg/mL] | intrinsic hydrophilicity/hydrophobicity coefficient ΔtR(Gly) [4] | further results
CC(C)(C)OC(=O)N(CCN=[N+]=[N-])CC[C@H](NC(=O)OCC1c2ccccc2-c2ccccc21)C(=O)O [compound 2, (S)-2-((((9H-fluoren-9-yl)methoxy)carbonyl)amino)-4-((2-azidoethyl)(tertbutoxycarbonyl)-amino)butanoic acid] |  |  | second order rate constant k2 with BCN [1]: 0.28 M⁻¹ s⁻¹
[N-]=[N+]=NCCNCC[C@H](N)C(=O)O [compound 1] |  | 1.4 | 
NCCCC[C@H](N)C(=O)O [Lys] |  | −0.04 | 
CC(C)[C@H](N)C(=O)N[C@@H](CCCCN)C(=O)N[C@H](C(=O)N[C@@H](CCCCN)C(=O)N[C@H](C(=O)N[C@@H](CCCCN)C(=O)N[C@H](C(=O)N[C@@H](CCCCN)C(=O)N[C@H](C(=O)N1CCC[C@@H]1C(=O)N1CCC[C@H]1C(=O)N[C@H](C(=O)N[C@@H](CCCCN)C(=O)N[C@H](C(=O)N[C@@H](CCC(=O)O)C(=O)N[C@H](C(=O)N[C@@H](CCCCN)C(=O)N[C@H](C(=O)N[C@@H](CCCCN)C(=O)N[C@H](C(N)=O)C(C)C)C(C)C)C(C)C)C(C)C)[C@@H](C)O)C(C)C)C(C)C)C(C)C)C(C)C [peptide 18] (H-VKVKVKVKV[dP]PTKVEVKVKV-NH2; N-terminus assumed) | ≥ 20 |  | 

The next lines start with results.

solubility [3] [mg/mL] | intrinsic hydrophilicity/hydrophobicity coefficient ΔtR(Gly) [4] | Compound | further results
< 1 |  | CC(C)[C@H](N)C(=O)N[C@@H](CCCCN=[N+]=[N-])C(=O)N[C@H](C(=O)N[C@@H](CCCCN=[N+]=[N-])C(=O)N[C@H](C(=O)N[C@@H](CCCCN=[N+]=[N-])C(=O)N[C@H](C(=O)N[C@@H](CCCCN=[N+]=[N-])C(=O)N[C@H](C(=O)N1CCC[C@@H]1C(=O)N1CCC[C@H]1C(=O)N[C@H](C(=O)N[C@@H](CCCCN=[N+]=[N-])C(=O)N[C@H](C(=O)N[C@@H](CCC(=O)O)C(=O)N[C@H](C(=O)N[C@@H](CCCCN=[N+]=[N-])C(=O)N[C@H](C(=O)N[C@@H](CCCCN=[N+]=[N-])C(=O)N[C@H](C(N)=O)C(C)C)C(C)C)C(C)C)C(C)C)[C@@H](C)O)C(C)C)C(C)C)C(C)C)C(C)C [peptide 17] (H-V[Lys(N3)]V[Lys(N3)]V[Lys(N3)]V[Lys(N3)]V[dP]PT[Lys(N3)]VEV[Lys(N3)]V[Lys(N3)]V-NH2) | solubility in Trifluoroethanol [2]: soluble; solubility in water and acetonitrile [2]: Insoluble
≥ 20 |  | CC(C)[C@H](N)C(=O)N[C@@H](CCNCCN=[N+]=[N-])C(=O)N[C@H](C(=O)N[C@@H](CCNCCN=[N+]=[N-])C(=O)N[C@H](C(=O)N[C@@H](CCNCCN=[N+]=[N-])C(=O)N[C@H](C(=O)N[C@@H](CCNCCN=[N+]=[N-])C(=O)N[C@H](C(=O)N1CCC[C@@H]1C(=O)N1CCC[C@H]1C(=O)N[C@H](C(=O)N[C@@H](CCNCCN=[N+]=[N-])C(=O)N[C@H](C(=O)N[C@@H](CCC(=O)O)C(=O)N[C@H](C(=O)N[C@@H](CCNCCN=[N+]=[N-])C(=O)N[C@H](C(=O)N[C@@H](CCNCCN=[N+]=[N-])C(=O)N[C@H](C(N)=O)C(C)C)C(C)C)C(C)C)C(C)C)[C@@H](C)O)C(C)C)C(C)C)C(C)C)C(C)C [peptide 16, VZVZVZVZV^DPPTZVEVZVZV-NH2] (H-V[X1]V[X1]V[X1]V[X1]V[dP]PT[X1]VEV[X1]V[X1]V-NH2) | 
